From patent US7935814B2, “Nitroguanosine-3′ 5′-cyclic monophosphate compound and protein kinase G activating agent” (Kumamoto University, priority 2005, dated 2011)

Legend:
protein kinase G = molecular target: T1, protein kinase G (Homo sapiens, UniProt Q13976); assay: Effect of activating protein kinase G: phosphorylation of Ser 157 of VASP detected by Western blotting in human uterine smooth muscle cells; format: cell-based; settings: for 50-kDa band of VASP having the phosphorylated Ser at position 157 (anti-VASP (Ser157) antibody): 1 mM compound, 5, 10, 15 and 30 minutes after addition, no bands at 0 minutes
T1 construct: host or cells: human uterine smooth muscle cells
T1 sequence (Q13976 1-671): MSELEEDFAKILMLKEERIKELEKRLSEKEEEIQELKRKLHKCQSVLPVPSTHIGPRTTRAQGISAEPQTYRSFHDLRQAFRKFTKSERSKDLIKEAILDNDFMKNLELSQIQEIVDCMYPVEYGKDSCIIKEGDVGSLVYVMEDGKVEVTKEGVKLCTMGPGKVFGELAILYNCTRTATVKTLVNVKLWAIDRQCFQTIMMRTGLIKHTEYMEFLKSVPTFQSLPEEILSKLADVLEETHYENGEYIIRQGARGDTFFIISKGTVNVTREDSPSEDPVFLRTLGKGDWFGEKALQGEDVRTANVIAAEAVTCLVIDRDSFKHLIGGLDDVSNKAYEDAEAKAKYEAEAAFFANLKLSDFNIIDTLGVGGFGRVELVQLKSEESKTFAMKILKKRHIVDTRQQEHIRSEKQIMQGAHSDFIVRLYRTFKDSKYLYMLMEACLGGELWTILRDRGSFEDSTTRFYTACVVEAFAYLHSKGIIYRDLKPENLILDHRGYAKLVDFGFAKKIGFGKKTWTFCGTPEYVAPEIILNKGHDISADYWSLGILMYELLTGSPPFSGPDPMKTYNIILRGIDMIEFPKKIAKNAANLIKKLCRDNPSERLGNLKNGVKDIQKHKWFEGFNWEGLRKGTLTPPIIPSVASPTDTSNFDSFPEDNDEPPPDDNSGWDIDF
Method: Intracellular signaling conducted by 8-nitroguanosine-3′,5′-cyclic monophosphate through mediation of protein kinase G was analyzed according to the method of Sergei D. Rybalkin et al (J. Biol. Chem. 277 3310-3317, 2002). Specifically, phosphorylation of Ser at position 157 of VASP (Vasodilator Stimulated Phosphoprotein), a substrate protein of protein kinase G, was detected by Western blotting. Specifically, human uterine smooth muscle cells (produced by CAMBREX) were cultured in Dulbecco's Modified Eagle Medium (DMEM-10% FCS) containing 10% fetal calf serum (FCS). The cells were seeded on a 6-well plate (produced by Falcon) at 4×10^5 cells/well and then cultured for 24 hours. The resultant was washed 3 times using phosphate buffered saline (PBS). Subsequently, DMEM-10% FCS containing 1 mM 8-nitroguanosine-3′,5′-cyclic monophosphate and 1 mM 8-Br-cGMP (produced by SIGMA) was added to the cells. Medium was immediately removed at 5 minutes, 10 minutes, 15 minutes, and 30 minutes after addition, followed by 2 instances of washing with PBS. A cell lysis solution (20 mM Tris-HCl (pH 8.0), 0.15 M NaCl, 1 mM EDTA, 1 mM EGTA, 1% TritonX-100, 2.5 mM sodium pyrophosphate, 1 mM β-glycerolphosphate, […], 1 μg/ml leupeptin, and 1 mM PMSF) was added. The resultant was allowed to stand on ice for 5 minutes, recovered using a cell scraper, transferred into an Eppendorf tube, and then ultrasonicated twice (5 seconds each). […] The protein concentration of the soluble fraction of the supernatant was determined using a BCA protein assay (produced by PIERCE). […] The resultant was then washed 3 times with TBST (10 minutes each), chemiluminescence was detected using LAS 1000plus (produced by FujiFilm) and ECL-plus (produced by Amersham Biosciences) as color developers, and then image files were incorporated. […] As is understood from the results in FIG. 1, no bands were detected at 0 minutes, but a 50-kDa band of VASP having the phosphorylated Ser at position 157 was detected at 5, 10, 15, and 30 minutes after addition of 8-nitroguanosine-3′,5′-cyclic monophosphate or 8-Br-cGMP.

[1] = system: excised rat carotid artery ring specimen; assay: Effect of relaxing vascular smooth muscle: phenylephrine pre-contracted excised rat carotid artery ring specimen, Magnus equipment; settings: for concentration required for exertion of the tension variation of 0.1 g: 100 nM phenylephrine pre-contraction, resting tension 1 g
Method: The effect of relaxing vascular smooth muscle exerted by 8-nitroguanosine-3′,5′-cyclic monophosphate was determined according to the method of Magnus R (Ergen Physiol. 2, 637-672, 1903) by causing phenylephrine, which is an α1 adrenergic receptor agonist, to act to cause pre-contraction of an excised rat carotid artery ring specimen, adding 8-nitroguanosine-3′,5′-cyclic monophosphate at different concentrations, and then determining the resulting relaxing effect using Magnus laboratory equipment, Specifically, an SD rat (male, 10-week-old, body weight of 350 g, CHARLES RIVER LABORATORIES JAPAN, INC.) was sacrificed under ether anesthesia, a carotid artery was excised, a stainless-steel bar was inserted into the intravascular lumen, and then endothelial cells were removed through scraping, thereby preparing ring vascular specimens of approximately 4 mm each. The vascular specimens were immersed in 3 ml of a Krebs buffer (1.2 mM NaHPO4, 120 mM NaCl, 5.9 mM KCl, 2.5 mM CaCl2, 1.2 mM MgCl2, 15.5 mM NaHCO3, and 11.5 mM glucose). The Krebs buffer used herein had been previously kept at 37° C., aerated with 95% O2+5% CO2 for oxygenation, and adjusted to pH of 7.4. The ring vascular specimens were fixed within a microtissue organ bath MTOB-2 (produced by Labo Support Co., Ltd.). Isometric tension was measured at the resting tension of 1 g using an isometric transducer and an amplifier for such transducer (AG-621G Nihon Kohden Corporation). A PowerLab data acquisition apparatus (AD instruments) was used for data analysis. 1-Phenylephrine hydrochloride (produced by Wako Pure Chemical Industries, Ltd.) was added at a final concentration of 100 nM to the Krebs buffer, so as to sufficiently contract the blood vessels. 8-Nitroguanosine-3′,5′-cyclic monophosphate and 8-Br-cGMP were each cumulatively administered at final concentrations of 1 μM, 3 μM, 10 μM, 30 μM, 100 μM, and 300 μM. The relaxing action on vascular smooth muscle was determined. […] In particular, whereas the 8-nitroguanosine-3′,5′-cyclic monophosphate concentration required for exertion of the tension variation of 0.1 g was 10 μM, the 8-Br-cGMP concentration required for the same was 30 μM.

[2] = endothelium-removed rat carotid artery ring

Row | 50-kDa band of VASP having the phosphorylated Ser at position 157 (anti-VASP (Ser157) antibody) (protein kinase G) | 50-kDa band shifted to the higher molecular weight side because of phosphorylation (antibody recognizing the entire VASP molecule) (protein kinase G; 1 mM compound, at 5 minutes or more after addition, almost no 50-kDa band at 0 minutes) | Structure (SMILES) | concentration required for exertion of the tension variation of 0.1 g [1, 2] | relaxing effect on blood vessel contracted using phenylephrine ([1]; endothelium-removed rat carotid artery ring, 100 nM phenylephrine, cumulative 1-300 μM) | effect of relaxing vascular smooth muscle relative to 8-Br-cGMP ([1]; rat carotid artery ring, from concentrations giving tension variation of 0.1 g)
1 | detected | detected in all cases | Nc1nc2c(nc([N+](=O)[O-])n2C2O[C@@H]3COP(=O)(O)OC3C2O)c(=O)[nH]1 (stereo partly shown) [8-nitroguanosine-3′,5′-cyclic monophosphate] | 10 µM | exerted a relaxing effect | approximately 3 times
2 | detected | – | Nc1nc2c(nc(Br)n2[C@@H]2O[C@@H]3COP(=O)(O)O[C@H]3[C@H]2O)c(=O)[nH]1 [8-Br-cGMP, 8-bromoguanosine-3′,5′-cyclic monophosphate, reference compound] | 30 µM | – | –
